Reference: US20220402862A1 (Intellia Therapeutics, Inc., priority 2019, published 2022)

Tests used:
[1] = Dynamic light scattering of LNPs: Z-average diameter, number average diameter, PDI; assay type: physicochemical; settings: LNP, sg:mRNA 1:1, N/P about 6, 50/9/38/3; Table 2, Experiments 2-20
Method in brief: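 LNP samples were diluted in PBS and measured by DLS to give intensity-based Z-average diameter, number average diameter and polydispersity index. PDI describes size spread around the mean, with zero meaning a uniform population.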

[2] = pKa measurement of unformulated amine lipid (fluorescence, method of Jayaraman et al.); assay type: physicochemical; settings: 100 μM in 0.1 M phosphate buffer, pH 2.0-12.0
Protocol: The pKa of each amine lipid was determined according to the method in Jayaraman, et al. (Angewandte Chemie, 2012) with the following adaptations. […] Lipid was diluted to 100 μM in 0.1 M phosphate buffer (Boston Bioproducts) where the pH ranged from 2.0-12.0. Fluorescence intensity was measured using excitation and emission wavelengths of 321 nm and 448 nm.

[3] = RNA encapsulation efficiency of LNPs (Ribogreen fluorescence assay); assay type: physicochemical; settings: LNP, sg:mRNA 1:1, N/P about 6, amine lipid/DSPC/cholesterol/PEG-2k-DMG 50/9/38/3; Table 2, Experiments 2-20
Method in brief: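 LNPs were diluted in 1× TE with 0.2% Triton X-100 (total RNA) or without it (free RNA), stained with RiboGreen for ~10 min at room temperature in the dark, and read at Ex 488/Em 525 nm against standard curves of the starting RNA. Encapsulation efficiency = (Total − Free)/Total.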

Transthyretin (TTR) = test: Serum TTR ELISA in mice after LNP dosing; assay type: in vivo, CD-1 female mice; settings: guide G282 experiments; for Serum TTR % TSS: mouse serum TTR relative to TSS control; for Serum TTR: mouse serum, ELISA
Protocol: CD-1 female mice ranging from 6-10 weeks of age were used in each study. Animals were weighed and grouped according to body weight for preparing dosing solutions based on group average weight. LNPs were dosed via the lateral tail vein in a volume of 0.2 mL per animal (approximately 10 mL per kilogram body weight). The animals were periodically observed for adverse effects for at least 24 hours post dose. For studies measuring in vivo editing in liver, CD-1 female mice were dosed at 0.1 mg/kg unless otherwise noted. Animals were euthanized at 6 or 7 days by ex sanguination via cardiac puncture under isoflurane anesthesia. Liver tissue was collected from each animal for DNA extraction and analysis. Blood was collected into serum separator tubes or into tubes containing buffered sodium citrate for plasma as described herein. Cohorts of mice were measured for editing by Next-Generation Sequencing (NGS).
Blood was collected and the serum was isolated as indicated. The total mouse TTR serum levels were determined using a Mouse Prealbumin (Transthyretin) ELISA Kit (Aviva Systems Biology, Cat. OKIA00111). Briefly, sera were serial diluted with kit sample diluent to a final dilution of 10,000-fold for 0.1 mg/kg dose and final dilutions of 10,000-fold and of 2,500-fold for 0.3 mg/kg. This diluted sample was then added to the ELISA plates and the assay was carried out according to the manufacturer's directions.

Row | SMILES | Number mean (nm) [1] [nm] | PDI [1] | Z-avg (nm) [1] [nm] | pKa [2] | Encapsulation (%) [3] [%] | Serum TTR % TSS (Transthyretin (TTR)) [%] | Serum TTR (Transthyretin (TTR)) [µg/mL]
1 | CCCCC/C=C\C/C=C\CCCCCCCC(=O)OCC(COC(=O)CCCCN(C)C)COC(=O)CCC(OCCCCCCCC)OCCCCCCCC (stereo not drawn) [Compound 25] | 61 | 0.080 | 87 | 7.65 | 99 | 112 | 1013
2 | CCCCC/C=C\C/C=C\CCCCCCCC(=O)OCC(COC(=O)CCCN(C)C)COC(=O)CCC(OCCCCCCCC)OCCCCCCCC (stereo not drawn) [Compound 26, 3-((4,4-bis(octyloxy)butanoyl)oxy)-2-(((4-(dimethylamino)butanoyl)oxy)methyl)propyl (9Z,12Z)-octadeca-9,12-dienoate] | 73 | 0.000 | 88 | 7.39 | 98 | 112 | 1008
3 | CCCCC/C=C\C/C=C\CCCCCCCC(=O)OCC(COC(=O)CCC(OCCCCCCCC)OCCCCCCCC)COC(=O)CCN(CC)CC (stereo not drawn) [Compound 27, 3-((4,4-bis(octyloxy)butanoyl)oxy)-2-(((3-(diethylamino)propanoyl)oxy)methyl)propyl (9Z,12Z)-octadeca-9,12-dienoate] | 45 | 0.100 | 66 | 5.35 | 97 | 93 | 841
4 | CCCCC/C=C\C/C=C\CCCCCCCC(=O)OCC(COC(=O)CCCCN(CC)CC)COC(=O)CCC(OCCCCCCCC)OCCCCCCCC (stereo not drawn) [Compound 28, 3-((4,4-bis(octyloxy)butanoyl)oxy)-2-(((5-(diethylamino)pentanoyl)oxy)methyl)propyl (9Z,12Z)-octadeca-9,12-dienoate] | 68 | 0.010 | 83 | 7.3 | 98 | 73 | 661
5 | CCCCC/C=C\C/C=C\CCCCCCCC(=O)OCC(COC(=O)CCC(OCCCCCCCC)OCCCCCCCC)COC(=O)C1(C)CCN(C)CC1 (stereo not drawn) [Compound 32, 3-((4,4-bis(octyloxy)butanoyl)oxy)-2-((((9Z,12Z)-octadeca-9,12-dienoyl)oxy)methyl)propyl 1,4-dimethylpiperidine-4-carboxylate] | 61 | 0.040 | 77 | 7.32 | 99 | 43 | 388
6 | CCCCC/C=C\C/C=C\CCCCCCCC(=O)OCC(COC(=O)CCC(OCCCCCCCC)OCCCCCCCC)COC(=O)NC1CCCN(CC)C1 (stereo not drawn) [Compound 36, 3-((4,4-bis(octyloxy)butanoyl)oxy)-2-((((1-ethylpiperidin-3-yl)carbamoyl)oxy)methyl)propyl (9Z,12Z)-octadeca-9,12-dienoate] | 59.48 | 0.024 | 73.71 | 6.58 | 98 | 99 | 795
7 | CCCCC/C=C\C/C=C\CCCCCCCC(=O)OCC(COC(=O)CCC(OCCCCCCCC)OCCCCCCCC)COC(=O)NC1CCN(CC)CC1 (stereo not drawn) [Compound 37, 3-((4,4-bis(octyloxy)butanoyl)oxy)-2-((((1-ethylpiperidin-4-yl)carbamoyl)oxy)methyl)propyl (9Z,12Z)-octadeca-9,12-dienoate] | 44.73 | 0.091 | 65.01 | 7.84 | 100 | 77 | 617
8 | CCCCC/C=C\C/C=C\CCCCCCCC(=O)OCC(COC(=O)CCC(OCCCCCCCC)OCCCCCCCC)COC(=O)NCC1CCCCN1CC (stereo not drawn) [Compound 38, 3-((4,4-bis(octyloxy)butanoyl)oxy)-2-(((((1-ethylpiperidin-2-yl)methyl)carbamoyl)oxy)methyl)propyl (9Z,12Z)-octadeca-9,12-dienoate] | 74.58 | 0.019 | 91.5 | 7.17 | 96 | 60 | 481
9 | CCCCC/C=C\C/C=C\CCCCCCCC(=O)OCC(COC(=O)CCC(OCCCCCCCC)OCCCCCCCC)COC(=O)NCC1CCCN1C (stereo not drawn) [Compound 39, 3-((4,4-bis(octyloxy)butanoyl)oxy)-2-(((((1-methylpyrrolidin-2-yl)methyl)carbamoyl)oxy)methyl)propyl (9Z,12Z)-octadeca-9,12-dienoate] | 64.79 | 0.024 | 79.81 | 7.34 | 97 | 82 | 656
10 | CCCCC/C=C\C/C=C\CCCCCCCC(=O)OCC(COC(=O)CCC(OCCCCCCCC)OCCCCCCCC)COC(=O)NC1CCN(CC)C1 (stereo not drawn) [Compound 41, 3-((4,4-bis(octyloxy)butanoyl)oxy)-2-((((1-ethylpyrrolidin-3-yl)carbamoyl)oxy)methyl)propyl (9Z,12Z)-octadeca-9,12-dienoate] | 54.1 | 0.074 | 74.83 | 7.82 | 98 | 95 | 758
11 | CCCCCC/C=C\COC(=O)CCCCCCCCCCCC(=O)OCC(COC(=O)CCC(OCCCCCCCC)OCCCCCCCC)COC(=O)OCCCN(CC)CC (stereo not drawn) [Compound 70, (Z)-1-(3-((4,4-bis(octyloxy)butanoyl)oxy)-2-((((3-(diethylamino)propoxy)carbonyl)oxy)methyl)propyl) 13-(non-2-en-1-yl) tridecanedioate] | 66.78 | 0.017 | 83.47 | 6.02 | 98 | – | –
12 | CCCCC/C=C\C/C=C\CCCCCCCC(=O)OCC(COC(=O)CCC(OCCCCCCCC)OCCCCCCCC)OC(=O)OCCCN(CC)CC (stereo not drawn) [Compound 97, 3-((4,4-bis(octyloxy)butanoyl)oxy)-2-(((3-(diethylamino)propoxy)carbonyl)oxy)propyl (9Z,12Z)-octadeca-9,12-dienoate] | 55.14 | 0.037 | 68.66 | 6.09 | 98 | – | –
13 | CCCCC/C=C\C/C=C\CCCCCCCC(=O)OCC(COCCN(CC)CC)COC(=O)CCC(OCCCCCCCC)OCCCCCCCC (stereo not drawn) [Compound 98, 3-((4,4-bis(octyloxy)butanoyl)oxy)-2-((2-(diethylamino)ethoxy)methyl)propyl (9Z,12Z)-octadeca-9,12-dienoate] | 57 | 0.02 | 70 | 6.4 | 99 | – | –
14 | CCCCC/C=C\C/C=C\CCCCCCCC(=O)OCC(COCCCN(CC)CC)COC(=O)CCC(OCCCCCCCC)OCCCCCCCC (stereo not drawn) [Compound 99, 3-((4,4-bis(octyloxy)butanoyl)oxy)-2-((3-(diethylamino)propoxy)methyl)propyl (9Z,12Z)-octadeca-9,12-dienoate] | 74 | 0.003 | 89 | 7.1 | 99 | – | –
